Measured values as given in US20250268906A1, “MOLECULAR GLUE COMPOUND BASED ON CEREBLON PROTEIN DESIGN AND USE THEREOF” (GLUETACS THERAPEUTICS (SHANGHAI) CO., LTD., priority 2022, published 2025).
Where two headings read alike, the source gives them in different places.

What was measured:
TMD8 cells = assay: Tumor cell proliferation inhibition, CCK-8 kit, 96 h; assay type: cell-based; conditions: Homo sapiens, read-out: IC50 for inhibiting the proliferation of tumor cells, TMD8 cell
Method: (§1) The tumor cells used herein were cultured in RPMI 1640 medium supplemented with 10% FBS, penicillin to a final concentration of 100 U/mL, and streptomycin to a final concentration of 100 μg/mL, at 37° C. in an incubator with 5% CO2. Prior to experimentation, all cells used were correctly identified by STR profiling, and tested negative for Mycoplasma through routine screenings.
(§2) After 24 h, 100 μL of the inoculated cells were treated with 0.5 μL of the compounds of the present disclosure (including the compounds in Table 1, and Examples compounds) in DMSO at 10 different successively decreasing concentrations (starting at a maximum concentration of 10 μM; 5-fold serial dilutions). […] The growth inhibition of the compounds of the present disclosure on the cells was plotted using Prism Graphpad software, and the IC50 values of the compounds of the present disclosure were calculated.

[1] = molecular target: human Cereblon WT GST-tagged protein (Homo sapiens (Human), UniProt Q96SW2); assay: CRBN binding, HTRF (CEREBLON BINDING kit)
Sequence of human Cereblon WT GST-tagged protein (Q96SW2 whole entry): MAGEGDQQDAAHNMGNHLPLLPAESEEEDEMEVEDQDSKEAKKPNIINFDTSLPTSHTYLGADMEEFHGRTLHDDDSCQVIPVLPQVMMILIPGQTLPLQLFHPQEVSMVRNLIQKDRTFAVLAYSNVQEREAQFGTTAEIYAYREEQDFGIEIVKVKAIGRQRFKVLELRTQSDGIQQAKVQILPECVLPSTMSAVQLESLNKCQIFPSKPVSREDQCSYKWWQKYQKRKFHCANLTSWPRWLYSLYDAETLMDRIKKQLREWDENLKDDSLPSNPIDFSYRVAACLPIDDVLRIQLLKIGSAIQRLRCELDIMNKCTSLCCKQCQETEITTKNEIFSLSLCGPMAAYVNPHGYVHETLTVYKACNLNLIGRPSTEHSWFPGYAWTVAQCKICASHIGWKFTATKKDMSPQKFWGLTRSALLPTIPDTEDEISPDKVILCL
Method: The CEREBLON BINDING kits (specification: 10,000 tests; product number: Catalog #64BDCRBNPEH; CISBIO company) was used to determine the CRBN binding ability of the compounds to be tested through a HTRF method (homogeneous time-resolved fluorescence). The specific methods are as follows: • 1. […] Then, 2.5 μL of human Cereblon WT GST-tagged protein solution was added to each well. Finally, 5 μL of the thoroughly mixed Thalidomide-Re reagent and GST Eu antibody working solution were added to each of the aforementioned wells. […] The blank control wells were sequentially added with 2.5 μL of diluent #9 (1×) solution, 2.5 μL of PROTAC binding buffer, and 5 μL of thoroughly mixed Thalidomide-Re reagent and GST Eu antibody working solution. • 4.
The corresponding CRBN binding inhibition rate was calculated using the following method: […]
OD 620 nmcompound is the absorbance value of each well of the compounds of the present disclosure to be tested at an emission wavelength of 620 nm. […] OD 620 nmcontrol is the absorbance value of the blank control well at an emission wavelength of 620 nm. […] OD 620 nmStd0 is the absorbance value of the solvent control well at an emission wavelength of 620 nm.

Daudi cells = assay: Tumor cell proliferation inhibition, CCK-8 kit, 96 h; assay type: cell-based; conditions: Homo sapiens
Method: as §1, §2

Mino cells = assay: as above; assay type: cell-based; conditions: Homo sapiens
Method: as §1, §2

MM.1S cells = assay: as above; assay type: cell-based; conditions: Homo sapiens, MM1.S
Method: as §1, §2

IKZF3 protein = IKZF3 protein (Homo sapiens (Human), UniProt Q96SW2+Q9UKT9); assay: Western blot, substrate protein degradation in hPBMC; assay type: cell-based; conditions: 24 h
Sequence of IKZF3 protein (Q9UKT9 whole entry): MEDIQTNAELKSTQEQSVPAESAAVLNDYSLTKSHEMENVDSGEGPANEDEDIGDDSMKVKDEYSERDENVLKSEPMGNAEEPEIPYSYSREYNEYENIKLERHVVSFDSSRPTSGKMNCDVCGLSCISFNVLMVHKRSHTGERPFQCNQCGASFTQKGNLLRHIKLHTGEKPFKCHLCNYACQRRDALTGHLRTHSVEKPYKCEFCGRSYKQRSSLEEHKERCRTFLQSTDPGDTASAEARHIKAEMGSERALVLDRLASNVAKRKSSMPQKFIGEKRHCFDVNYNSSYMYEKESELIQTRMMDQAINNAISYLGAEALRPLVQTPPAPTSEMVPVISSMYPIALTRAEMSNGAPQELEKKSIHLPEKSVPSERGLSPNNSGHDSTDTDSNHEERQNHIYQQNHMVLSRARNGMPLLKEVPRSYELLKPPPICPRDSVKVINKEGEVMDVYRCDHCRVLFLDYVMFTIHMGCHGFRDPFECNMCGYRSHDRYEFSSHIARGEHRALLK
Sequence of IKZF3 protein (Q96SW2 whole entry): as the sequence (Q96SW2 whole entry) above
Sequence of IKZF3 protein (Q16531 whole entry partner): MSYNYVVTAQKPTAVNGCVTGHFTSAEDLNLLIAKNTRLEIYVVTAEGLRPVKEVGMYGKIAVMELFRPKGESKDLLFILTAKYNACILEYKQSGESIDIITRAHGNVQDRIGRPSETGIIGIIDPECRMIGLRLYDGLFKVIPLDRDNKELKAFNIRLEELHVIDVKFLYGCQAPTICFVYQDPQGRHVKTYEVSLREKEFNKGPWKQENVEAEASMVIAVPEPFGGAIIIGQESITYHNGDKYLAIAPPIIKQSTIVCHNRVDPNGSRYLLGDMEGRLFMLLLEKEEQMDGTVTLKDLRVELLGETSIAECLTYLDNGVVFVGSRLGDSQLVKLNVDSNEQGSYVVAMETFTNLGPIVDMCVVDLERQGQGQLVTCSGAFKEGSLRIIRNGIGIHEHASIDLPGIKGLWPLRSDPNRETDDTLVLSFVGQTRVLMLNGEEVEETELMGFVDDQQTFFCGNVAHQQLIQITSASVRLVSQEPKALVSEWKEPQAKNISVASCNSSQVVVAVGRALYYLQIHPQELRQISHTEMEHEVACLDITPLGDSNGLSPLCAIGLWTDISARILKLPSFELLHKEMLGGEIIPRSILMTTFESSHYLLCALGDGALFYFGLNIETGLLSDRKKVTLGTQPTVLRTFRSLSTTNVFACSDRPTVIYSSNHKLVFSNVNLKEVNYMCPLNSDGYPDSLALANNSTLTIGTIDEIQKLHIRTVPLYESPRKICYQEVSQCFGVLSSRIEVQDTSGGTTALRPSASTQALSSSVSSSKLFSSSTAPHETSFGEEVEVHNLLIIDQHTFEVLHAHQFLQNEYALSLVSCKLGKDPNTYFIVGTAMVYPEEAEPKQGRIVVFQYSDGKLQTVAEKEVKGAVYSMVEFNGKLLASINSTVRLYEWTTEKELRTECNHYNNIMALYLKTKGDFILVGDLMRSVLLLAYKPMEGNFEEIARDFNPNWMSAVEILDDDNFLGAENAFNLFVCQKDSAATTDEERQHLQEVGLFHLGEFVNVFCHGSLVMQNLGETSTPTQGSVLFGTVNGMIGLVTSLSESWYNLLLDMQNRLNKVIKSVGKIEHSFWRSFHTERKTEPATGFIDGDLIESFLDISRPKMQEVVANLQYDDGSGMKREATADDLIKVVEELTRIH
Source text: (§3) The supernatant, containing the total cellular protein, was aspirated.

IKZF1 protein = IKZF1 protein (Homo sapiens (Human), UniProt Q13422+Q96SW2); assay: as above; assay type: cell-based; conditions: 24 h
Sequence of IKZF1 protein (Q13422 whole entry): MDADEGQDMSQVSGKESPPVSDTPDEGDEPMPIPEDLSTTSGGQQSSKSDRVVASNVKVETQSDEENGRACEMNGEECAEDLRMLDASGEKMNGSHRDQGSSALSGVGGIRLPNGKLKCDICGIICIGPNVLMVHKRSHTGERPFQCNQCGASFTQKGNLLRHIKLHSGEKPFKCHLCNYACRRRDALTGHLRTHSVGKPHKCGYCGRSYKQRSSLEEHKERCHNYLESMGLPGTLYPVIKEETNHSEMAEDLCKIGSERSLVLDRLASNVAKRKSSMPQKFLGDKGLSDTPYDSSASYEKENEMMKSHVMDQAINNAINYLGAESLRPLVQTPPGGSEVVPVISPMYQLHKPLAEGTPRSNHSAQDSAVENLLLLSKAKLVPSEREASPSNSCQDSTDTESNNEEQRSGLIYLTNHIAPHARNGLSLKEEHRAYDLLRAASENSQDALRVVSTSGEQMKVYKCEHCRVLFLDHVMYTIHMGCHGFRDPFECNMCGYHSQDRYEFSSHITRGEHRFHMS
Sequence of IKZF1 protein (Q96SW2 whole entry): as the sequence (Q96SW2 whole entry) above
Sequence of IKZF1 protein (Q16531 whole entry partner): as the sequence (Q16531 whole entry partner) above
Source text: as §3

GSPT1 protein = GSPT1 protein (Homo sapiens (Human), UniProt P15170+Q96SW2); conditions: hPBMC, 24 h, 50 nM
Sequence of GSPT1 protein (P15170 whole entry, looked up): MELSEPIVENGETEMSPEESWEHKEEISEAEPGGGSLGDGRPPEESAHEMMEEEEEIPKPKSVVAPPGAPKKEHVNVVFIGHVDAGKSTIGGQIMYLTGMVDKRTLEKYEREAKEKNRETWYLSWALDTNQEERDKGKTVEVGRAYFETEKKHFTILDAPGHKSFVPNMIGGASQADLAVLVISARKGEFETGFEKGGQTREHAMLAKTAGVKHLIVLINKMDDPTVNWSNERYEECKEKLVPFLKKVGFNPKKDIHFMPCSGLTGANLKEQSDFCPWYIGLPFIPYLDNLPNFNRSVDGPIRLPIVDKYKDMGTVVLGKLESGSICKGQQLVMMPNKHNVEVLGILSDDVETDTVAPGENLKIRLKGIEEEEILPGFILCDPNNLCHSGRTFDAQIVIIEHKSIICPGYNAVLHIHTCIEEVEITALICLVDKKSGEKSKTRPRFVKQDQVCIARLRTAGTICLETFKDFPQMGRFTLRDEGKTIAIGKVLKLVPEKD
Sequence of GSPT1 protein (Q96SW2 whole entry, looked up): as the sequence (Q96SW2 whole entry) above
Sequence of GSPT1 protein (Q16531 whole entry partner, looked up): as the sequence (Q16531 whole entry partner) above
Source text: as §3

[2] = Daudi cells, CCK-8, read-out: IC50 for inhibiting the proliferation of tumor cells, Daudi cell
[3] = Mino cells, CCK-8, read-out: IC50 for inhibiting the proliferation of tumor cells, Mino cell
[4] = MM.1S cells, CCK-8, read-out: IC50 for inhibiting the proliferation of tumor cells, MM.1S cell

SMILES	IC50 [1] [nM]	IC50 (Mino cells; [3]) [nM]	IC50 (MM.1S cells; [4]) [nM]	also measured
O=C1CCC(N2Cc3c(SCc4ccc(CN5CCC(F)(F)CC5)cc4)cc(F)cc3C2=O)C(=O)N1 (stereo not drawn) [GT-04024, 3-(4-((4-((4,4-difluoropiperidin-1-yl)methyl)benzyl)thio)-6-fluoro-1-oxoisoindolin-2-yl)piperidine-2,6-dione]	< 600			IC50 (TMD8 cells; TMD8 cells, 96 h, CCK-8): 5 to 10 nM
O=C1CCC(N2Cc3c(SCc4ccc(CN5CCCCC5)cc4)cc(F)cc3C2=O)C(=O)N1 (stereo not drawn) [GT-04117, 3-(6-fluoro-1-oxo-4-((4-(piperidin-1-ylmethyl)benzyl)thio)isoindolin-2-yl)piperidine-2,6-dione]	< 600	< 5		IC50 (Daudi cells; [2]): 500 to 1000 nM; IC50 (TMD8 cells; TMD8 cells, 96 h, CCK-8): 10 to 50 nM
O=C1CCC(N2Cc3c(SCCCCNC45CC6CC(CC(C6)C4)C5)cc(F)cc3C2=O)C(=O)N1 (stereo not drawn) [GT-04243, 3-(4-((4-((adamantan-1-yl)amino)butyl)thio)-6-fluoro-1-oxoisoindolin-2-yl)piperidine-2,6-dione]	< 600			
O=C1CCC(N2Cc3c(SCCCCCCCNC45CC6CC(CC(C6)C4)C5)cc(F)cc3C2=O)C(=O)N1 (stereo not drawn) [GT-04333, 3-(4-((7-((adamantan-1-yl)amino)heptyl)thio)-6-fluoro-1-oxoisoindolin-2-yl)piperidine-2,6-dione]	< 600			
O=C1CCC(N2Cc3c(SCCCCCCCCN4CCOCC4)cc(F)cc3C2=O)C(=O)N1 (stereo not drawn) [GT-05341, 3-(6-fluoro-4-((8-morpholinooctyl)thio)-1-oxoisoindolin-2-yl)piperidine-2,6-dione]	< 600			
CCN(CC)CCCCCCCCSc1cc(F)cc2c1CN(C1CCC(=O)NC1=O)C2=O (stereo not drawn) [GT-05342, 3-(4-((8-(diethylamino)octyl)thio)-6-fluoro-1-oxoisoindolin-2-yl)piperidine-2,6-dione]	< 600			
O=C1CCC(N2Cc3c(SCCCCCCC(=O)N4CCCCC4)cc(F)cc3C2=O)C(=O)N1 (stereo not drawn) [GT-05343, 3-(6-fluoro-1-oxo-4-((7-oxo-7-(piperidin-1-yl)heptyl)thio)isoindolin-2-yl)piperidine-2,6-dione]	< 600	10 to 50		
O=C1CCC(N2Cc3c(SCCCCCCCN4CCCCC4)cc(F)cc3C2=O)C(=O)N1 (stereo not drawn) [GT-05344, 3-(6-fluoro-1-oxo-4-((7-(piperidin-1-yl)heptyl)thio)isoindolin-2-yl)piperidine-2,6-dione]	< 600			
O=C1CCC(N2Cc3c(SCCCCCCC(=O)N4CCC(F)(F)CC4)cc(F)cc3C2=O)C(=O)N1 (stereo not drawn) [GT-05407, 3-(4-((7-(4,4-difluoropiperidin-1-yl)-7-oxoheptyl)thio)-6-fluoro-1-oxoisoindolin-2-yl)piperidine-2,6-dione]	< 600	10 to 50	50 to 100	
O=C1CCC(N2Cc3c(SCCCCCCCN4CCC(F)(F)CC4)cc(F)cc3C2=O)C(=O)N1 (stereo not drawn) [GT-05408, 3-(4-((7-(4,4-difluoropiperidin-1-yl)heptyl)thio)-6-fluoro-1-oxoisoindolin-2-yl)piperidine-2,6-dione]	< 600	50 to 100		
O=C1CCC(N2Cc3c(SCCCCCCCNC4CCCCC4)cc(F)cc3C2=O)C(=O)N1 (stereo not drawn) [GT-05409, 3-(4-((7-(cyclohexylamino)heptyl)thio)-6-fluoro-1-oxoisoindolin-2-yl)piperidine-2,6-dione]	< 600	< 5		
CN(CCCCCCCSc1cc(F)cc2c1CN(C1CCC(=O)NC1=O)C2=O)C12CC3CC(CC(C3)C1)C2 (stereo not drawn) [GT-05421, 3-(4-((7-((adamantan-1-yl)(methyl)amino)heptyl)thio)-6-fluoro-1-oxoisoindolin-2-yl)piperidine-2,6-dione]	< 600	< 5	< 5	
O=C1CCC(N2Cc3c(SCCCCCCCNC4CC5(CCC5)C4)cc(F)cc3C2=O)C(=O)N1 (stereo not drawn) [GT-05422, 3-(6-fluoro-1-oxo-4-((7-(spiro[3.3]heptan-2-ylamino)heptyl)thio)isoindolin-2-yl)piperidine-2,6-dione]	< 600	< 5	< 5	
O=C1CCC(N2Cc3c(SCc4ccc(CNC56CC7CC(CC(C7)C5)C6)cc4)cc(F)cc3C2=O)C(=O)N1 (stereo not drawn) [GT-05423, 3-(4-((4-(((adamantan-1-yl)amino)methyl)benzyl)thio)-6-fluoro-1-oxoisoindolin-2-yl)piperidine-2,6-dione]	< 600	< 5	< 5	
CC1(C)[C@@H]2CC[C@@]1(C)[C@@H](NCc1ccc(CSc3cc(F)cc4c3CN(C3CCC(=O)NC3=O)C4=O)cc1)C2 (stereo partly drawn) [GT-05424, 3-(6-fluoro-1-oxo-4-((4-((((1R,2S,4R)-1,7,7-trimethylbicyclo[2.2.1]heptan-2-yl)amino)methyl)benzyl)thio)isoindolin-2-yl)piperidine-2,6-dione]	< 600	< 5	10 to 50	IC50 (Daudi cells; [2]): 100 to 500 nM
CC1(C)[C@@H]2CC[C@@]1(C)[C@@H](NCCCCCCCSc1cc(F)cc3c1CN(C1CCC(=O)NC1=O)C3=O)C2 (stereo partly drawn) [GT-05425, 3-(6-fluoro-1-oxo-4-((7-(((1R,2S,4R)-1,7,7-trimethylbicyclo[2.2.1]heptan-2-yl)amino)heptyl)thio)isoindolin-2-yl)piperidine-2,6-dione]	< 600	< 5	50 to 100	IC50 (Daudi cells; [2]): 500 to 1000 nM
O=C1CCC(N2Cc3c(SCc4ccc(CCNC56CC7CC(CC(C7)C5)C6)cc4)cc(F)cc3C2=O)C(=O)N1 (stereo not drawn) [GT-05431, 3-(4-((4-(2-((adamantan-1-yl)amino)ethyl)benzyl)thio)-6-fluoro-1-oxoisoindolin-2-yl)piperidine-2,6-dione]	< 600	< 5	< 5	IC50 (Daudi cells; [2]): < 5 nM
O=C1CCC(N2Cc3c(SCc4ccc(CN5CCCCC5)c(F)c4)cc(F)cc3C2=O)C(=O)N1 (stereo not drawn) [GT-05443, 3-(6-fluoro-4-((3-fluoro-4-(piperidin-1-ylmethyl)benzyl)thio)-1-oxoisoindolin-2-yl)piperidine-2,6-dione]	< 600	< 5	10 to 50	IC50 (Daudi cells; [2]): 100 to 500 nM; concentration at which IKZF3 protein is significantly degraded (IKZF3 protein; Western blot): below 10 nM; concentration at which IKZF1 protein is significantly degraded (IKZF1 protein; Western blot): below 0.1 nM
O=C1CCC(N2Cc3c(SCc4ccc(CN5CCC(F)(F)CC5)c(F)c4)cc(F)cc3C2=O)C(=O)N1 (stereo not drawn) [GT-05444, 3-(4-((4-((4,4-difluoropiperidin-1-yl)methyl)-3-fluorobenzyl)thio)-6-fluoro-1-oxoisoindolin-2-yl)piperidine-2,6-dione]	< 600	< 5	< 5	IC50 (Daudi cells; [2]): 10 to 50 nM
O=C1CCC(N2Cc3c(CCCCCCCCNC45CC6CC(CC(C6)C4)C5)cc(F)cc3C2=O)C(=O)N1 (stereo not drawn) [GT-05617, 3-(4-(8-((adamantan-1-yl)amino)octyl)-6-fluoro-1-oxoisoindolin-2-yl)piperidine-2,6-dione]	< 600	50 to 100		
Nc1cccc2c1C(=O)N(C1CCC(=O)NC1=O)C2=O (stereo not drawn) [pomalidomide, reference compound]				degradation of GSPT1 protein (GSPT1 protein): does not degrade; IC50 (Daudi cells; Daudi, read-out: IC50 for inhibiting the proliferation of tumor cells, Daudi cell): 1000 to 5000 nM; IC50 (MM.1S cells; read-out: IC50 for inhibiting the proliferation of tumor cells, MM.1S cell): 100 to 500 nM; IC50 (TMD8 cells; TMD8, 96 h): 100 to 500 nM; IC50 (Mino cells; MINO, read-out: IC50 for inhibiting the proliferation of tumor cells, Mino cell): 100 to 500 nM; degradation of IKZF3 protein (IKZF3 protein; 50 nM): does not degrade; degradation of IKZF1 protein (IKZF1 protein; 50 nM): does not degrade
